Results as given in patent publication US6887705B1, “Tyrosine phosphorylated cleavage furrow-associated proteins (PSTPIPs)” (Genentech, Inc., priority 1997, dated 2005).

Experiments:
[1] = system: PSTPIP tyrosine phosphorylation; test: Tyrosine phosphorylation of endogenous PSTPIP in Baf3 cells; assay type: cell-based, murine
Method: Baf3 cells were lysed in 1% Triton, 50 mM HEPES. 10% glycerol and 5 mM EDTA containing 1 μg/ml aprotinin, PMSF, leupeptin and pepstatin were 1 mM Sodium Vanadate and 10 mM Iodoacetic acid. Cells were treated with 0.1 mM Pervanadate for 4 hours before lysis. Immunoprecipitations were performed in the vanadate-containing lysis buffer using 1 μg/ml anti-PSTPIP polyclonal antibody and 400 μg of lysate protein at 4° C. overnight. Western blots were performed using 1 μg/ml affinity purified anti-PSTPIP or 1:5000 dilution of commercial 4G10 anti-phosphotyrosine monoclonal (Upstate Biotech). Signal was detected by HRPO-ECL reagents (Pierce). The C221-S mutant was as previously described (Cheng et al., (1996) supra). The PTP HSCF D197-A mutant was generated using PCR. Mutagenesis primer D197A.F ([…]) (SEQ ID NO:24), corresponding to nucleotide 591, and primer D197A.R ([…]) (SEQ ID NO:25) which corresponds to the stop codon, were used in PCR to generate a fragment that could be cut with Mscl and XbaI. pRK.HA.38 WT, a plasmid which encoded the wild type enzyme under the control of the cytomegalovirus promoter (Cheng et al., (1996) supra), was digested with Clal and Mscl and the resulting 600 bp fragment was ligated with the Mscl-Xbal PCR fragment into the Clal and Xbal sites of the pRK.tkneo. […]

[2] = biological target: T1, interaction between PTP HSCF and PSTPIP (Mus musculus, UniProt P97814); test: Peptide inhibition of in vitro binding of PSTPIP to GST-PTP HSCF fusion; parameters: species or system murine; conditions: GST-PST-rich+CTH PTP HSCF precipitating in vitro translated PSTPIP, varying amounts of peptide
T1 construct: made in house; host or cells: GST fusion: E. coli DH5-alpha; PSTPIP: in vitro transcription/translation in rabbit reticulocyte lysate (Promega TnT)
T1 sequence (P97814 1-415): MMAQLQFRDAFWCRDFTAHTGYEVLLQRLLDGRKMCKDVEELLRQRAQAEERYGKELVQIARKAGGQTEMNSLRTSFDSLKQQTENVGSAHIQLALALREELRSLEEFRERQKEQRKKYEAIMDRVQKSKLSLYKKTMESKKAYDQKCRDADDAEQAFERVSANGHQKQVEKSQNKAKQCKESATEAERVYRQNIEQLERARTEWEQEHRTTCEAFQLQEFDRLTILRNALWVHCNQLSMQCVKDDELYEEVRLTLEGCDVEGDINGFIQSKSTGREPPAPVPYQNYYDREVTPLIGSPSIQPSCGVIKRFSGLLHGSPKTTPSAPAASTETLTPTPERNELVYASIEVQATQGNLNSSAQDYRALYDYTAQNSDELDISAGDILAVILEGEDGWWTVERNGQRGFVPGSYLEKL
Method: The binding was carried out according to the method of Wong and Johnson (Wong et al., J. Biol. Chem. 271(35):20981-20984 (1996)). Briefly, 1 μg of plasmid with either the PSTPIP protein or PTP HSCF under the control of the Sp6 promoter was in vitro transcribed/translated using the Promega™ TnT Rabbit Reticulocyte™ system. Samples were diluted in 50 mM HEPES, pH 7.2, 1% triton X 100, 10% glycerol, 100 mM NaCl, 5 mM EDTA and 2 μg/ml each of leupeptin, pepstatin, aprotinin, and PMSF. […] This was reacted for 1 hour at 4° C. and then the resin washed 6 times in HEPES/Triton binding buffer before SDS gel electrophoresis. The peptides were synthesized on an automated Milligen 9050 Peptide Synthesizer using standard solid phase chemistry with FMOC protected amino acids on a p-alkoxybenzyl alcohol resin. Dried peptides were re-suspended in the HEPES/Triton Binding buffer at a concentration of 10 mg/ml. Peptide inhibition was performed by adding the peptide first to the in vitro translation product and then the GST-fusion followed by the GSH-Sepharose. […]
In vitro binding analyses between various PTP HSCF and PST PIP constructs were performed as previously described (Spencer et al, (1997), supra). […] Samples were than reacted with GST fusion proteins at various concentrations, and the bound proteins were centrifuged using glutathione-sepharose beads and analyzed on SDS polyacrylamide gels. […]

[O]=[V]([O-])([O-])[O-] [vanadate]
tyrosine phosphorylation of endogenous PSTPIP [1]: significantly enhanced

GGVLRSISVPAPPTLPMADT [PXXP-CONTROL]
blocking of the PTP HSCF-PSTPIP interaction by peptide [2]: completely unable to block the interaction
